These results are taken from ChEMBL document CHEMBL3217612, “Progress on lamellarins” (Medchemcomm, 2011).

One experiment concerns A549. Briefly: Cytotoxicity against human A549 cells after 48 hrs by XTT assay. It counts as functional, cell-based. To be noted: A549, 48 h.
Experiment [1] in a line: Cytotoxicity against human HuCCa1 cells after 48 hrs by XTT assay. Type of experiment: functional, cell-based. As to conditions: HuCC-A1, 48 h. (Formazan colour is commonly taken as a measure of viable cells.)
The subject of the next experiment is HepG2. Briefly: Cytotoxicity against human HepG2 cells after 48 hrs by XTT assay. It counts as functional, cell-based. As to conditions: HepG2, 48 h.
Experiment [2] in a line: Cytotoxicity against human MOLT3 cells after 48 hrs by XTT assay. To be noted: MOLT-3, 48 h. It counts as functional, cell-based.
In a further experiment the test system is KB. Briefly: Cytotoxicity against human KB cells after 48 hrs by XTT assay. It counts as functional, cell-based.
In a further experiment the test system is H69AR. Briefly: Cytotoxicity against human H69AR cells after 48 hrs by XTT assay. It counts as functional, cell-based.
The next experiment deals with T47D. Briefly: Cytotoxicity against human T47D cells after 48 hrs by XTT assay. Type of experiment: functional, cell-based.
A further experiment has as its system MDA-MB-231. Briefly: Cytotoxicity against human MDA-MB-231 cells after 48 hrs by XTT assay. Type of experiment: functional, cell-based. To be noted: MDA-MB-231, 48 h.
Experiment [3] can be described thus: Cytotoxicity against human HCC-S102 cells after 48 hrs by XTT assay. It counts as functional, cell-based. To be noted: HCC-S102, 48 h.
The subject of a further experiment is HeLa. Briefly: Cytotoxicity against human HeLa cells after 48 hrs by XTT assay. It counts as functional, cell-based.
The subject of a further experiment is P388. Briefly: Cytotoxicity against mouse P388 cells after 48 hrs by XTT assay. It counts as functional, cell-based. To be noted: P388, 48 h.
The next experiment relates to HL-60. Briefly: Cytotoxicity against human HL60 cells after 48 hrs by XTT assay. Type of experiment: functional, cell-based. As to conditions: HL-60, 48 h.
The test system of the next experiment is MRC5. Briefly: Cytotoxicity against human MRC5 cells after 48 hrs by XTT assay. As to conditions: MRC5, 48 h. Type of experiment: cell-based.

Broadly, the IC50 is the concentration at which inhibition is half-maximal. High values mean a need for much substance, low ones inhibition by little substance. Consider `COc1cc(-c2c3c4cc(OC)c(O)cc4[nH]c(=O)c3n3ccc4cc(O)c(OC)cc4c23)ccc1O`, for which the IC50 with A549 worked out at 740 nM; in [1] it was 120 nM; with HepG2, 130 nM; in [2], 30 nM.

On to `COc1ccc(-c2c3c4cc(OC)c(O)cc4oc(=O)c3n3ccc4c(O)c(OC)c(OC)cc4c23)cc1O`, for which the IC50 was determined as 80 nM in the experiment on KB; 300 nM in the experiment with A549; 300 nM with H69AR; 6 nM with T47D; 80 nM in the experiment on MDA-MB-231; 40 nM in experiment [1]. Besides, the IC50 in the experiment on HepG2 turned out to be 200 nM; in [3] it was 1600 nM; in the experiment on HeLa, 90 nM; with P388, 300 nM; in the experiment on HL-60, 200 nM; in the experiment with MRC5, 10100 nM.

Take `COc1cc(-c2c3c4cc(OC)c(O)cc4oc(=O)c3n3ccc4c(O)c(OC)c(OC)cc4c23)ccc1O`: the IC50 in the experiment on KB worked out at 200 nM; in the experiment with A549, 40 nM; in the experiment with H69AR, 300 nM; with T47D, 9 nM; in the experiment with MDA-MB-231, 100 nM; in experiment [1], 60 nM. Moreover, the IC50 in the experiment with HepG2 was determined as 20 nM; in experiment [3] it was 1900 nM; with HeLa, 300 nM; in the experiment with P388, 100 nM; in the experiment on HL-60, 60 nM; in the experiment with MRC5, 13400 nM.

As for `COc1cc2c(cc1O)oc(=O)c1c2c(-c2ccc(OC)c(OC)c2)c2c3cc(OC)c(OC)c(O)c3ccn21`, the IC50 in the experiment with KB turned out to be 300 nM; in the experiment with A549, 300 nM; in the experiment with H69AR it was 2300 nM; in the experiment on T47D it was 6 nM; in the experiment on MDA-MB-231, 300 nM; in experiment [1], 70 nM. Moreover, the IC50 in the experiment on HepG2 turned out to be 100 nM; in experiment [3] it was 2100 nM; with HeLa it was 300 nM; in the experiment on P388 it was 300 nM; with HL-60 it was 100 nM; in the experiment with MRC5 it was 25800 nM.

As to `COc1ccc(-c2c3c4cc(OC)c(O)cc4oc(=O)c3n3ccc4cc(O)c(OC)cc4c23)cc1O`, the IC50 worked out at 60 nM with KB; 40 nM in the experiment on A549; 60 nM in the experiment on H69AR; 0.6 nM in the experiment with T47D; 600 nM in the experiment with MDA-MB-231; 8 nM in experiment [1]. In addition, the IC50 in the experiment with HepG2 is 20 nM; in experiment [3] it was 2300 nM; in the experiment on HeLa, 40 nM; in the experiment with P388 it was 80 nM; in the experiment on HL-60 it was 40 nM; in the experiment on MRC5, greater than 100000 nM.

On to `COc1cc2c(cc1O)oc(=O)c1c2c(-c2ccc(OC)c(OC)c2)c2c3cc(OC)c(O)cc3ccn21`, for which the IC50 in the experiment on KB stood at 80 nM; in the experiment on A549, 40 nM; in the experiment with H69AR it was 300 nM; in the experiment on T47D, 0.1 nM; in the experiment with MDA-MB-231, 400 nM; in experiment [1] it was 6 nM. The IC50 in the experiment with HepG2 was 10 nM; in [3], 2100 nM; in the experiment on HeLa, 80 nM; in the experiment on P388, 80 nM; in the experiment on HL-60, 40 nM; in the experiment with MRC5 it was greater than 97400 nM.

As for `COc1cc(-c2c3c4cc(OC)c(O)cc4oc(=O)c3n3ccc4cc(O)c(OC)cc4c23)ccc1O` [LAMELLARIN D], the IC50 is 40 nM in the experiment with KB; 60 nM with A549; 400 nM in the experiment with H69AR; 0.08 nM with T47D; 400 nM in the experiment on MDA-MB-231; 80 nM in experiment [1]. Besides, the IC50 in the experiment on HepG2 worked out at 20 nM; in [3] it was 3200 nM; in the experiment with HeLa, 60 nM; in the experiment on P388 it was 100 nM; in the experiment on HL-60, 40 nM; in [2], 49 nM. Further, the IC50 with MRC5 was found to be 9200 nM.
